# Assay results taken from patent US20180207111A1, “IMMUNOTHERAPY FOR CASR-EXPRESSING CANCER (E.G. NEUROBLASTOMA)” (HOSPITAL SANT JOAN DE DEU, priority 2015, published 2018).
# Columns and labels:
# [1] = system: LA-N-1 xenografts; test: Genome-wide expression analysis of xenografts, Affymetrix Human Gene Array 2.1 ST; type: in vivo
# Description: Total RNA was isolated from 8 xenografts exposed to Cinacalcet (C) and 8 from the control group (V). These were the last 8 tumors excised in each group, so that analyzed xenografts were those exposed to the longest period of treatment (V5-V12 and C4-C11). Two different mRNA expression analyses were conducted: Genome-wide expression analysis by microarrays (Example 3) and by RT-qPCR (Example 4).
# Genome-wide expression analyses were performed using Affymetrix Human and Mouse Gene Array 2.1 ST (Affymetrix, reference number 902136 for human gene array and 902120 for mouse gene array) as per manufacturer's protocol. Procedures to analyze results included: Quality control of the arrays (following this step, xenograft C6 was removed from further analyses); filtering and normalization; selection of differentially expressed genes; single comparison (treated versus control samples); list of differentially expressed genes ranked by significance; Volcano plots showing the most differentially expressed genes; heatmaps of the clustered expression profiles; and analysis of biological significance through enrichment analysis against the Gene Ontologies, KEGG (Kyoto Encyclopedia of Genes and Genomes) and Ingenuity pathways.
# However, these differences of gene expression were not statistically significant, adjusted P-value >0.05 (Table 3). Nonetheless, in this first analysis, corresponding to heatmap on FIG. 3, it was apparent that a group of genes were specifically modulated in the three tumors exposed to Cinacalcet for the longest period of time. This was confirmed by a second genome-wide expression analysis that examined differentially expressed genes in these three specimens (C9-C11) compared to the 8 vehicle-treated tumors (V5-V12) (FIG. 4).
# [2] = system: LA-N-1 cells; test: Morphological assessment of neuroblastoma cells exposed to Cinacalcet; type: cell-based, Homo sapiens; conditions: 1 μM Cinacalcet vs DMSO; day 3
# Description: FIG. 1 is a micrograph showing the morphological assessment of LA-N-1 cells exposed to 1 μM Cinacalcet (C) or DMSO (vehicle (V)) for 3 days (3d) and 14 days (14d).
# (§1) Three neuroblastoma cell lines LA-N-1, SK-N-LP and SH-SY5Y were used for this purpose. […] No expression of the CaSR is detectable in SH-SY5Y either. Thus, SK-N-LP and SH-SY5Y were stably transfected with pCMV-CaSR-GFP or pCMV-GFP. All cell lines were grown in the presence of 1 μM Cinacalcet (Selleck Chemicals, S1260) or DMSO for 21 days in P100 plates. Morphology was assessed daily. Total RNA was isolated at days 1, 3, 5, 7, 10, 14 and 21. Several markers were analyzed by RT-qPCR using SYBRgreen and specific primers or Taqman technology and gene-specific Assays-on-Demand (Applied Biosystems) (Table 1).
# (§2) These features reached maximal expression between days 7 and 14 (FIG. 1). […] Neuroblastoma cytodifferentiation is an indication of this tumor becoming more benign, less proliferative. […] Moreover, upregulation of these differentiation-associated genes and CTAs both in vitro and in vivo (see Examples 2-4) validates the proposed in vitro model (doses used, time of exposure, etc) as a good model to evaluate neuroblastoma response to treatment with Cinacalcet.
# [3] = system: LA-N-1; test: RT-qPCR mRNA expression in LA-N-1 neuroblastoma cells grown with Cinacalcet; type: cell-based, Homo sapiens; conditions: 1 μM Cinacalcet vs DMSO, up to 21 days
# Description: as §1, §2
# [4] = Plasmatic ionic Ca2+ and tolerability in xenograft-bearing mice; type: in vivo
# Text: FIG. 2 comprises graphs showing (A) Effect of Cinacalcet treatment on survival (%) in an in vivo neuroblastoma model treated with Cinacalcet (triangle) or vehicle (circle) over time (days); (B) Plasmatic ionic Ca^2+ concentrations (mmol/L) in mice receiving Cinacalcet (triangle) or vehicle (circle) over time (weeks).
# An in vivo model of neuroblastoma was generated in four to six-week-old female athymic Nude-Foxn1 nu/nu mice (Charles Rivers), wherein LA-N-1 cells (10^7) were subcutaneously inoculated. Tumors were allowed to grow until dimensions reached 7×7 mm. Then mice were randomized to receive either vehicle (described below) or Cinacalcet (10 mg/kg/day) by oral gavage 6 days per week until tumor volume reached 2 cm^3. Cinacalcet was prepared with Mimpara® tablets (Amgen). […] Dimensions of tumors were measured thrice a week using a digital caliper. Tumor volume was calculated as L×W^2/2 in which “L” indicates length in mm and “W” indicates width in mm. At the end of the experiment (each mouse was sacrificed when the corresponding xenograft reached the final pre-determined volume 2 cm^3), tumors were excised and half of each specimen was frozen in liquid nitrogen for molecular analyses and the other was fixed in 10% formalin. […]
# [5] = three longest-treated xenografts C9-C11 vs vehicle V5-V12, adjusted P 0.00986984
# [6] = three longest-treated xenografts C9-C11 vs vehicle V5-V12, adjusted P 0.01746325
# [7] = three longest-treated xenografts C9-C11 vs vehicle V5-V12, adjusted P 0.01874439
# [8] = three longest-treated xenografts C9-C11 vs vehicle V5-V12, adjusted P 0.02269447
# [9] = three longest-treated xenografts C9-C11 vs vehicle V5-V12, adjusted P 0.0249218
# [10] = three longest-treated xenografts C9-C11 vs vehicle V5-V12, adjusted P 0.04520061
# [11] = three longest-treated xenografts C9-C11 vs vehicle V5-V12, adjusted P 0.04907024
# [12] = three longest-treated xenografts C9-C11 vs vehicle V5-V12, adjusted P 0.05146784
# [13] = xenografts C4, C5, C7-C11 vs vehicle V5-V12, 10 mg/kg/day oral, adjusted P 0.35366385
# [14] = xenografts C4, C5, C7-C11 vs vehicle V5-V12, 10 mg/kg/day oral, adjusted P 0.52209349
# [15] = xenografts C4, C5, C7-C11 vs vehicle V5-V12, 10 mg/kg/day oral, adjusted P 0.61235652
structure (smiles),measurement,setting,value
C[C@@H](NCCCc1cccc(C(F)(F)F)c1)c1cccc2ccccc12 [Cinacalcet],"Log fold change, probe 17104825 (CXorf49//CXorf49B)","[1]; three longest-treated xenografts C9-C11 vs vehicle V5-V12, adjusted P 0.00358764",1.857
same,"Log fold change, probe 16695923 (FAM78B)",[1]; [5],1.543
same,"Log fold change, probe 17070589 (CNBD1)",[1]; [5],1.801
same,"Log fold change, probe 17103272 (SSX4B//SSX4)",[1]; [5],1.389
same,"Log fold change, probe 17104821 (CXorf49//CXorf49B)",[1]; [5],2.714
same,"Log fold change, probe 16972634 (LOC285500)","[1]; three longest-treated xenografts C9-C11 vs vehicle V5-V12, adjusted P 0.01361569",1.359
same,"Log fold change, probe 17103626 (GAGE12G//GAGE12F//GAGE12I//GAGE7//... GAGE family, Entrez 645073)","[1]; three longest-treated xenografts C9-C11 vs vehicle V5-V12, adjusted P 0.01682153",2.202
same,"Log fold change, probe 17103647 (GAGE2A//GAGE2C//GAGE2B//GAGE2D//... GAGE family, Entrez 729447)",[1]; [6],2.059
same,"Log fold change, probe 17103679 (GAGE2A//GAGE2C//GAGE12G//GAGE12F//... GAGE family, Entrez 729447)",[1]; [6],2.03
same,"Log fold change, probe 16837128 (PRKCA)",[1]; [7],1.165
same,"Log fold change, probe 16926807 (CECR7)",[1]; [7],1.23
same,"Log fold change, probe 17103653 (GAGE12C//GAGE12D//GAGE12E//GAGE12G//... GAGE family, Entrez 729422)",[1]; [7],2.183
same,"Log fold change, probe 17103655 (GAGE12C//GAGE12D//GAGE12E//GAGE12H//... GAGE family, Entrez 729422)",[1]; [7],2.032
same,"Log fold change, probe 17103673 (GAGE12G//GAGE12C//GAGE12D//GAGE12E//... GAGE family, Entrez 645073)",[1]; [7],1.962
same,"Log fold change, probe 16982161 (PDLIM3)",[1]; [8],1.187
same,"Log fold change, probe 16986694 (SPZ1)",[1]; [8],1.239
same,"Log fold change, probe 17103614 (GAGE12J//GAGE2D//GAGE2E//GAGE8//... GAGE family, Entrez 729396)",[1]; [8],1.853
same,"Log fold change, probe 17103620 (GAGE13//GAGE12D//GAGE12E//GAGE12B//... GAGE family, Entrez 645051)",[1]; [8],2.07
same,"Log fold change, probe 17103690 (GAGE12H//GAGE12C//GAGE12D//GAGE12E//... GAGE family, Entrez 729442)",[1]; [8],1.931
same,"Log fold change, probe 17110576 (SSX4//SSX4B)",[1]; [8],1.272
same,"Log fold change, probe 16938527 (RBMS3)","[1]; three longest-treated xenografts C9-C11 vs vehicle V5-V12, adjusted P 0.02361429",1.243
same,"Log fold change, probe 16711753 (PROSER2-AS1)",[1]; [9],1.36
same,"Log fold change, probe 16838249 (LOC100507351)",[1]; [9],1.078
same,"Log fold change, probe 17111994 (RGAG4)",[1]; [9],1.076
same,"Log fold change, probe 17113928 (TENM1)","[1]; three longest-treated xenografts C9-C11 vs vehicle V5-V12, adjusted P 0.03166044",1.577
same,"Log fold change, probe 16679142 (RYR2)","[1]; three longest-treated xenografts C9-C11 vs vehicle V5-V12, adjusted P 0.04211565",1.356
same,"Log fold change, probe 17043613 (LOC100505938)","[1]; three longest-treated xenografts C9-C11 vs vehicle V5-V12, adjusted P 0.04288827",1.14
same,"Log fold change, probe 16970118 (SYNPO2)",[1]; [10],1.722
same,"Log fold change, probe 17115014 (GABRA3)",[1]; [10],1.248
same,"Log fold change, probe 16732397 (POU2F3)","[1]; three longest-treated xenografts C9-C11 vs vehicle V5-V12, adjusted P 0.0462006",1.148
same,"Log fold change, probe 16752147 (NEUROD4)",[1]; [11],1.009
same,"Log fold change, probe 16928510 (SEZ6L)",[1]; [11],1.17
same,"Log fold change, probe 16812942 (NTRK3)",[1]; [12],1.186
same,"Log fold change, probe 16920617 (CTCFL)",[1]; [12],1.866
same,"Log fold change, probe 16837226 (SNORA38B)",[1]; [13],1.107
same,"Log fold change, probe 16902703 (POTEF)",[1]; [13],1.124
same,"Log fold change, probe 17103626 (GAGE12G//GAGE12F//GAGE12I//GAGE7//... GAGE family, Entrez 645073)","[1]; xenografts C4, C5, C7-C11 vs vehicle V5-V12, 10 mg/kg/day oral, adjusted P 0.39648602",1.489
same,"Log fold change, probe 17103647 (GAGE2A//GAGE2C//GAGE2B//GAGE2D//... GAGE family, Entrez 729447)","[1]; xenografts C4, C5, C7-C11 vs vehicle V5-V12, 10 mg/kg/day oral, adjusted P 0.4625512",1.341
same,"Log fold change, probe 17103679 (GAGE2A//GAGE2C//GAGE12G//GAGE12F//... GAGE family, Entrez 729447)","[1]; xenografts C4, C5, C7-C11 vs vehicle V5-V12, 10 mg/kg/day oral, adjusted P 0.47520907",1.318
same,"Log fold change, probe 17103614 (GAGE12J//GAGE2D//GAGE2E//GAGE8//... GAGE family, Entrez 729396)",[1]; [14],1.191
same,"Log fold change, probe 17103620 (GAGE13//GAGE12D//GAGE12E//GAGE12B//... GAGE family, Entrez 645051)",[1]; [14],1.314
same,"Log fold change, probe 17103653 (GAGE12C//GAGE12D//GAGE12E//GAGE12G//... GAGE family, Entrez 729422)",[1]; [14],1.354
same,"Log fold change, probe 17103655 (GAGE12C//GAGE12D//GAGE12E//GAGE12H//... GAGE family, Entrez 729422)",[1]; [14],1.313
same,"Log fold change, probe 17103673 (GAGE12G//GAGE12C//... GAGE family, Entrez 645073)",[1]; [14],1.257
same,"Log fold change, probe 17103690 (GAGE12H//GAGE12C//GAGE12D//GAGE12E//... GAGE family, Entrez 729442)",[1]; [14],1.261
same,"Log fold change, probe 16920617 (CTCFL)",[1]; [15],1.137
same,"Log fold change, probe 17104821 (CXorf49//CXorf49B)",[1]; [15],1.423
same,Morphological features of neuronal differentiation,[2],extensive neurite outgrowth
same,CTCFL mRNA fold increase,[3],1.2 fold
same,MAGEA2 mRNA fold increase,[3],2.9 fold
same,MAGEA3 mRNA fold increase,[3],1.4 fold
same,NFL mRNA fold increase,[3],ns
same,NTRK1 mRNA fold increase,[3],3.2 fold
same,NTRK3 mRNA fold increase,[3],2.4 fold
same,S100-β mRNA fold increase,[3],6.9 fold
same,SSX4/4B mRNA fold increase,[3],3.8 fold
same,TUBB3 mRNA fold increase,[3],ns
same,GAGE-P1 mRNA fold increase,[3]; primer pair GAGE P1,2.7 fold
same,GAGE-P2 mRNA fold increase,[3]; primer pair GAGE P2,7.6 fold
same,GAGE-P3 mRNA fold increase,[3]; primer pair GAGE P3,5.1 fold
same,Plasmatic ionic Ca2+ concentration,"[4]; mice, 10 mg/kg/day oral gavage, FIG. 2B","Mild, non-symptomatic, hypocalcemia"
same,Signs of toxicity,"[4]; mouse, in vivo, po, 10 mg/kg/day",No signs of toxicity were observed
